24 compounds from BindingDB's records for doi:10.7270/Q23B5XKP (Vanderbilt Screening Center for GPCRs, Ion Channels and …, 2009) can be followed below.

The target of the assay is T1, Solute carrier family 12 member 5 (Homo sapiens, UniProt Q9H2X9).
T1 sequence (Q9H2X9 whole entry): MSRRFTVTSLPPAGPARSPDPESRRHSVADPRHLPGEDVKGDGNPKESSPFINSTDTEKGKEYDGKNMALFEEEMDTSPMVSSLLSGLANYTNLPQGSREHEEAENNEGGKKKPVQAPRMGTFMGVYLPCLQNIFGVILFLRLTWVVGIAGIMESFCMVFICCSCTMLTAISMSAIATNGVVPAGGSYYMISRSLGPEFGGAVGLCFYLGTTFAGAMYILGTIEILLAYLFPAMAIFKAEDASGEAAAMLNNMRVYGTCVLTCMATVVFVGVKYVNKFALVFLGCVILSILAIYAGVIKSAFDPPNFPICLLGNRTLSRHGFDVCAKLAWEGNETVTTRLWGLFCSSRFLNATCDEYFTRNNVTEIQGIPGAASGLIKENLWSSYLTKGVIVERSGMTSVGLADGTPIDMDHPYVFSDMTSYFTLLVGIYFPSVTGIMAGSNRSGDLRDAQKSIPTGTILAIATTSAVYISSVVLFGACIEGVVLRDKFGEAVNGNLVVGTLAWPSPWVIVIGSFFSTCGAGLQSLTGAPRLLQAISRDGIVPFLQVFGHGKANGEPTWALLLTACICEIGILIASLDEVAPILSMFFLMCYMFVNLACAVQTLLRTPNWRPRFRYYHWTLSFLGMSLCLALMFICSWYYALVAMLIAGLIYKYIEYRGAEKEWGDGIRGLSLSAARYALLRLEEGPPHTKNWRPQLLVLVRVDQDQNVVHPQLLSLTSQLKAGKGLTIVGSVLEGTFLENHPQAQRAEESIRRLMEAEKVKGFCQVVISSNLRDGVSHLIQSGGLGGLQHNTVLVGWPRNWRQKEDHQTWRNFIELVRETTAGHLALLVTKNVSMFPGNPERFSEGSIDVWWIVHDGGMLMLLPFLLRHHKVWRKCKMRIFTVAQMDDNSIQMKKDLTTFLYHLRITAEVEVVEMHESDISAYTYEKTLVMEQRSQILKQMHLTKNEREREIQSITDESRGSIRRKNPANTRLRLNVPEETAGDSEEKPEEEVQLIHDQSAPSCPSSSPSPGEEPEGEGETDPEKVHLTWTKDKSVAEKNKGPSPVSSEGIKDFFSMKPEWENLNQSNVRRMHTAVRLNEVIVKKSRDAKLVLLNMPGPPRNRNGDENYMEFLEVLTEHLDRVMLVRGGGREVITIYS
Nature of the assay: KCC2 cotransport modulators, dose response, cell-based, assay 2 (AID 1723).

Where [1] appears, read: inactive by the depositor's call.

`S=c1nc(-c2ccc3c(c2)CCO3)cc[nH]1` had an EC50 of 6.1 µM.
On the same count and under the same terms, the result for `Fc1cccc(F)c1C=NNC(=S)Nc1cccnc1` [1-[(2,6-difluorobenzylidene)amino]-3-(3-pyridyl)thiourea] reads 6.66 µM; that for `O=C(NC(=S)Nc1nc(-c2cccc([N+](=O)[O-])c2)cs1)c1ccccc1Cl` [2-chloranyl-N-[[4-(3-nitrophenyl)-1,3-thiazol-2-yl]carbamothioyl]benzamide], 139 µM.
As for `O=C(NC(=S)Nc1cccc2cccnc12)c1cccs1` [MLS000688132], the EC50 under setting [1] was 0.124 µM. In other words, the sub-micromolar range.
For `COc1ccc(Cn2c(=S)[nH]c3ccccc32)cc1` [1-(4-methoxybenzyl)-1H-benzimidazole-2-thiol], a half-maximal response (EC50) required 0.401 µM.
For the compound `CC(=O)c1cccc(NC(=S)NC(=O)c2ccc(C)cc2)c1` [MLS000687464], the EC50 was 1.19 µM. This EC50 lies about 3-fold higher than the previous one.
Still for that read-out and setting: to `NC(=S)NN=C1C(=O)N(Cc2ccc(F)cc2)c2ccccc21` [1-[(Z)-[1-[(4-fluorophenyl)methyl]-2-oxidanylidene-indol-3-ylidene]amino]thiourea] belongs 7.58 µM; to `S=C(NCCc1ccccc1)NN=Cc1cccc(Cl)c1Cl` [1-[(2,3-dichlorobenzylidene)amino]-3-phenethyl-thiourea], 10.1 µM; to `Cc1[nH]n2c(=O)cc(C(C)C)nc2c1-c1ccccc1`, 21 µM.
Same read-out and setting: to `N=C1SCC(=O)N1c1ncc(Cc2cccc(Cl)c2)s1` [2-azanylidene-3-[5-[(3-chlorophenyl)methyl]-1,3-thiazol-2-yl]-1,3-thiazolidin-4-one] belongs 2.86 µM; to `O=c1c2ccccc2[nH]c(=S)n1CCN1CCC(=C(c2ccc(F)cc2)c2ccc(F)cc2)CC1` [SMR000058550], 13.3 µM; to `Oc1ccccc1CN=Nc1nc2ccccc2o1` [(6E)-6-[(1,3-benzoxazol-2-ylhydrazo)methylidene]-1-cyclohexa-2,4-dienone], 31.1 µM.
As for `COc1cc(NC(=S)NC(=O)c2ccco2)ccc1NC(=O)C(C)C` [MLS000672338], it took 7.99 µM to reach a half-maximal effect (EC50). This EC50 lies about 3.9-fold lower than the previous one.
On to `CC(C)c1ccc(OCC(=O)NNC(=O)c2cnccn2)cc1` [MLS000332605], for which the concentration for a half-maximal effect (EC50) was 15.6 µM.
In turn, `COc1ccccc1N1CCN(C(=S)NC(=O)/C=C/c2ccccc2)CC1` [(E)-N-[4-(2-Methoxy-phenyl)-piperazine-1-carbothioyl]-3-phenyl-acrylamide] registered an EC50 under setting [1] of 1.34 µM.
Still for that read-out and setting: the result for `Cc1ccc(-c2n[nH]c(=S)n2NC=CCc2ccccc2[N+](=O)[O-])cc1` reads 0.807 µM.
`Cc1cccc(N2CCN(C(=O)CCCn3c(=S)[nH]c4cc5c(cc4c3=O)OCO5)CC2)c1C` [MLS000095366] returned an EC50 of 11.2 µM.
Still for that read-out and setting: to `COC(=O)[C@@H](NC(=O)O[C@@H]1C(=O)c2ccc(OC)cc2O[C@H]1c1cccc(C(F)(F)F)c1)C(C)C` [(2S)-2-[[(2S,3S)-4-keto-7-methoxy-2-[3-(trifluoromethyl)phenyl]chroman-3-yl]oxycarbonylamino]-3-methyl-butyric acid methyl ester] belongs 0.515 µM; to `O=[N+]([O-])c1ccc(-c2cn(-c3ccccc3F)c(=S)[nH]2)cc1`, 0.616 µM.
Turning to `CCOc1ccc2nc(Sc3cc(O)n(-c4cccc(OC)c4)c3O)sc2c1` [3-(6-Ethoxy-benzothiazol-2-ylsulfanyl)-1-(3-methoxy-phenyl)-pyrrolidine-2,5-dione], the EC50 came to 7.89 µM.
Take `CC(=NNC(=O)c1ccc2c(c1)OCO2)c1ccc(Br)s1` [MLS000666595]: the concentration for a half-maximal effect (EC50) is 726 µM.
`O=C(C=Cc1ccccc1)CC(=O)c1ccccc1O` [MLS000627068] came in with an EC50 of 62.4 µM.
Still for that read-out and setting: the result for `O=C1OC(c2ccc(O)cc2)(c2ccc(O)cc2)c2ccccc21` reads 11.8 µM; that for `CCOc1cccc(C(=O)NC(=S)Nc2cccc(C)c2)c1` [3-ethoxy-N-(m-tolylthiocarbamoyl)benzamide], 1.58 µM.
